Laboratory results published in paper PMC7450057, “Enhancing intracellular accumulation and target engagement of PROTACs with reversible covalent chemistry” (Nature Communications, 2020).
Values joined by “and” are separate entries in the source; they are usually repeats but may differ in a detail not shown here. Equal entries are not always repeated. Values belong to the compound of their own block, whether it stands above or below them.

Assays:
MOLM-14 cells = test: Quantification of intracellular drug concentration by LC-MS; assay type: in vitro ADME; conditions: for Intracellular concentration: Concentration of compound, AVE / intracellular amount, AVE / intracellular amount / Intracellular concentration: Concentration of compound: 200 nM; for Intracellular concentration: Concentration of compound, AVE / intracellular amount, AVE: average of 3 replicates; for intracellular amount: initial amount 0.4000 nmol; for Intracellular concentration: Concentration of compound: sample volume 400 µL
Method: MOLM-14 cells were seeded at a density of 0.5 × 10^6 per mL in 2 mL medium. […] The samples were immediately centrifuged at 12,000 × g for 15 min at 4 °C, then removing the supernatant. In all, 400 μL of NP-40 lysis buffer was added to the cell pellet and mixed thoroughly. The mixtures were rocked for 1 h at 4 °C and centrifuged at 12,000 × g for 15 min at 4 °C. Then the supernatant was transferred to new EP tubes. In total, 20 µL supernatant was extracted with 180 µL of acetonitrile (containing internal standard: 250 nM of RNC-Ctrl) and centrifuged at the same conditions described above. Take 75 μL of supernatant for liquid chromatography-mass spectrometry analysis.
The mass spectrometer was operated in positive SIM ion mode (fragmentor 120 V; cycle time 0.6 s/cycle; Agilent Technologies 6130 Quadrupole LC/MS).

BTK = BTK (Mus musculus, UniProt P35991); test: BTK degradation in mouse B-cell lymphoma cell line derived from Eu-Myc mice; assay type: cell-based; design: endogenous in cells; host or cells: B cell lymphoma cell line derived from Eu-Myc mice; conditions: Supplementary Figure 10, replicates, DMSO about 100
Method: MOLM-14 cell line was obtained from Dr. Conneely at Baylor College of Medicine, and the Mino cells were purchased from the American Type Culture Collection (ATCC, Cat. No. CRL-3000). Both cell lines were cultured in RPMI 1640 medium (Thermo Fisher Scientific, Cat. No. MT10040CV) supplemented with 10% fetal bovine serum (GE Healthcare, Cat. No. SH30071.03) and 1% Pen/Strep (Thermo Fisher Scientific, Cat. No. 15140163). The wild-type and C481S BTK XLA cell lines were gifts from Dr. Woyach at The Ohio State University and were cultured in RPMI 1640 medium with 15% fetal bovine serum, 1% Pen/Strep, and 1.0 µg/ml puromycin (Thermo Fisher Scientific, Cat. No. A1113803). HEK 293T/17 cells were purchased from ATCC (Cat. No. CRL-11268) were maintained in DMEM (Thermo Fisher Scientific, Cat. No. MT10013CV) with 10% fetal bovine serum and 1% Pen-Strep. The B cell lymphoma cell line derived from Eu-Myc mice was a gift from Dr. Yulin Li at Houston Methodist Research Institute and cultured in RPMI 1640 medium supplemented with 15% (v/v) fetal bovine serum (FBS), 100 U/mL penicillin, 100 μg/mL streptomycin, and 0.05 mM beta-mercaptoethanol and puromycin (1 μg/mL). Cells were grown at 37 °C with 5% CO2.
The collected cells and spleen tissues were lysed in RIPA lysis buffer (50 mM Tris-HCl, pH 7.4, 150 mM NaCl, 1% NP-40, 0.5% sodium deoxycholate, 0.1% SDS) supplemented with Halt™ Protease and Phosphatase Inhibitor Cocktail (Thermo Fisher Scientific, Cat. No. PI78440) immediately before use. Lysates were centrifuged at 15,000 × g for 10 min at 4 °C and the supernatant was quantified for total protein concentration using the Pierce BCA Protein Assay (Thermo Fisher Scientific, Cat. No. 23225). Thirty micrograms of protein were loaded onto sodium dodecyl sulfate−polyacrylamide gel for electrophoresis (Bio-Rad) and transferred onto PVDF membranes (Millipore, Cat. No. IPVH00010). […] Imaging was performed using the ECL Prime chemiluminescent western blot detection reagents (GE Healthcare, Cat. No. RPN2232) by visualization of the blots to X-Ray film or with an Imager (Kindle Biosciences, Cat. No. D1001). All western blots were subsequently processed and quantified with Imager software. Protein level was normalized to β-actin or GAPDH loading controls.

Rec-1 = test: IC50 in MCL cell lines (Supplementary Table 2), Rec-1; conditions: for IC50: Rec-1, triplicates; for Cell Viability (%): Rec-1 cells, replicate wells

Sequence of BTK (P35991 whole entry): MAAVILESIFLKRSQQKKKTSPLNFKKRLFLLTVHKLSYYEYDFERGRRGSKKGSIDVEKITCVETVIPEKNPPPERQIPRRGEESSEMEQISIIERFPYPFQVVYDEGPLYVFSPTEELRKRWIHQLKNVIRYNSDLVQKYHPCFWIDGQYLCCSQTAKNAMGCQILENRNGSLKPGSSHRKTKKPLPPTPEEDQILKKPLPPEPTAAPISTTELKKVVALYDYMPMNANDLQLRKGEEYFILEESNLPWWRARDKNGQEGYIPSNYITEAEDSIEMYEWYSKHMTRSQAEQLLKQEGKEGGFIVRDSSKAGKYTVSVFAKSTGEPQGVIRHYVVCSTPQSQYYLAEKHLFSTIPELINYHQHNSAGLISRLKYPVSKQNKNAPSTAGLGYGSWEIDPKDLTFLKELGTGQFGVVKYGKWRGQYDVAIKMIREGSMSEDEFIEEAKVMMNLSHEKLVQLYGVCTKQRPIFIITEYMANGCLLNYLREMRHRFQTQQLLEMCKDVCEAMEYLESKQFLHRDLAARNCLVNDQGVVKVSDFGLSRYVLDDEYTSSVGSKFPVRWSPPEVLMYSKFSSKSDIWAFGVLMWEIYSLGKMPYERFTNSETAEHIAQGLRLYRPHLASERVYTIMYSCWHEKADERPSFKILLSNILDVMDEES

- Intracellular concentration: Concentration of compound, AVE (MOLM-14 cells; 5 min): 0.0785 µM
- intracellular amount, AVE (MOLM-14 cells; 5 min): 0.0314 nmol
- Intracellular concentration: Concentration of compound (MOLM-14 cells; 5 min, single replicates): 0.0713 µM and 0.0812 µM and 0.0831 µM
- Intracellular concentration: Concentration of compound, AVE (MOLM-14 cells; 15 min): 0.0779 µM
- intracellular amount, AVE (MOLM-14 cells; 15 min): 0.0311 nmol
- Intracellular concentration: Concentration of compound (MOLM-14 cells; 15 min, single replicates): 0.0767 µM and 0.0806 µM and 0.0763 µM
- Intracellular concentration: Concentration of compound, AVE (MOLM-14 cells; 30 min): 0.0702 µM
- intracellular amount, AVE (MOLM-14 cells; 30 min): 0.0281 nmol
- Intracellular concentration: Concentration of compound (MOLM-14 cells; 30 min, single replicates): 0.0648 µM and 0.0740 µM and 0.0719 µM
- Intracellular concentration: Concentration of compound, AVE (MOLM-14 cells; 60 min): 0.0651 µM
- intracellular amount, AVE (MOLM-14 cells; 60 min): 0.0260 nmol
- Intracellular concentration: Concentration of compound (MOLM-14 cells; 60 min, single replicates): 0.0686 µM and 0.0666 µM and 0.0601 µM
- Intracellular concentration: Concentration of compound, AVE (MOLM-14 cells; 90 min): 0.0717 µM
- intracellular amount, AVE (MOLM-14 cells; 90 min): 0.0287 nmol
- Intracellular concentration: Concentration of compound (MOLM-14 cells; 90 min, single replicates): 0.0688 µM and 0.0725 µM and 0.0738 µM
- Intracellular concentration: Concentration of compound, AVE (MOLM-14 cells; 120 min): 0.0652 µM
- intracellular amount, AVE (MOLM-14 cells; 120 min): 0.0261 nmol
- Intracellular concentration: Concentration of compound (MOLM-14 cells; 120 min, single replicates): 0.0598 µM and 0.0703 µM and 0.0653 µM
- Intracellular concentration: Concentration of compound, AVE (MOLM-14 cells; 240 min): 0.0595 µM
- intracellular amount, AVE (MOLM-14 cells; 240 min): 0.0238 nmol
- Intracellular concentration: Concentration of compound (MOLM-14 cells; 240 min, single replicates): 0.0571 µM and 0.0598 µM and 0.0616 µM
- Cellular concentration (MOLM-14 cells; 5 min, Mean): 0.0314 nmol/million cells
- Cellular concentration (MOLM-14 cells; 15 min, Mean): 0.0311 nmol/million cells
- Cellular concentration (MOLM-14 cells; 30 min, Mean): 0.0281 nmol/million cells
- Cellular concentration (MOLM-14 cells; 90 min, Mean): 0.0287 nmol/million cells
- Cellular concentration (MOLM-14 cells; 120 min, Mean): 0.0261 nmol/million cells
- Cellular concentration (MOLM-14 cells; 240 min, Mean): 0.0238 nmol/million cells
- BTK quantification (anti-BTK / anti-β-actin) (BTK; 8 nM): 93.1337 and 89.8918
- BTK quantification (anti-BTK / anti-β-actin) (BTK; 40 nM): 73.5656 and 73.5943
- BTK quantification (anti-BTK / anti-β-actin) (BTK; 200 nM): 64.1549 and 63.4726
Compound: CN(CC=CC(=O)N1CCCC(n2nc(-c3ccc(Oc4ccccc4)cc3)c3c(N)ncnc32)C1)CCCNC(=O)CNc1cccc2c1C(=O)N(C1CCC(=O)NC1=O)C2=O (stereo not shown) [IRC-1]
- intracellular amount (MOLM-14 cells; 5 min, single replicates): 0.0285 nmol and 0.0325 nmol and 0.0332 nmol
- intracellular amount (MOLM-14 cells; 15 min, single replicates): 0.0307 nmol and 0.0322 nmol and 0.0305 nmol
- intracellular amount (MOLM-14 cells; 30 min, single replicates): 0.0259 nmol and 0.0296 nmol and 0.0288 nmol
- intracellular amount (MOLM-14 cells; 60 min, single replicates): 0.0274 nmol and 0.0266 nmol and 0.0240 nmol
- intracellular amount (MOLM-14 cells; 90 min, single replicates): 0.0275 nmol and 0.0290 nmol and 0.0295 nmol
- intracellular amount (MOLM-14 cells; 120 min, single replicates): 0.0239 nmol and 0.0281 nmol and 0.0261 nmol
- intracellular amount (MOLM-14 cells; 240 min, single replicates): 0.0228 nmol and 0.0239 nmol and 0.0246 nmol
- Cellular concentration (MOLM-14 cells; 5 min, single replicates, MOLM-14, 200 nM): 0.0285 nmol/million cells and 0.0325 nmol/million cells and 0.0332 nmol/million cells
- Cellular concentration (MOLM-14 cells; 15 min, single replicates, MOLM-14, 200 nM): 0.0307 nmol/million cells and 0.0322 nmol/million cells and 0.0305 nmol/million cells
- Cellular concentration (MOLM-14 cells; 30 min, single replicates, MOLM-14, 200 nM): 0.0259 nmol/million cells and 0.0296 nmol/million cells and 0.0288 nmol/million cells
- Cellular concentration (MOLM-14 cells; 60 min, Mean): 0.0260 nmol/million cells and 0.026 nmol/million cells
- Cellular concentration (MOLM-14 cells; 60 min, single replicates, MOLM-14, 200 nM): 0.0240 nmol/million cells and 0.0274 nmol/million cells and 0.0266 nmol/million cells and 0.024 nmol/million cells
- Cellular concentration (MOLM-14 cells; 90 min, single replicates, MOLM-14, 200 nM): 0.0290 nmol/million cells and 0.0275 nmol/million cells and 0.029 nmol/million cells and 0.0295 nmol/million cells
- Cellular concentration (MOLM-14 cells; 120 min, single replicates, MOLM-14, 200 nM): 0.0239 nmol/million cells and 0.0281 nmol/million cells and 0.0261 nmol/million cells
- Cellular concentration (MOLM-14 cells; 240 min, single replicates, MOLM-14, 200 nM): 0.0228 nmol/million cells and 0.0239 nmol/million cells and 0.0246 nmol/million cells

- IC50 (Rec-1): > 5 µM
Compound: CN1C(=O)CCC(N2C(=O)c3cccc(NCC(=O)NCCCN(C)C(C)(C)C=C(C#N)C(=O)N4CCCC(n5nc(-c6ccc(Oc7ccccc7)cc6)c6c(N)ncnc65)C4)c3C2=O)C1=O (stereo not shown) [RC-1-Me]
- Cell Viability (%) (Rec-1; 1.25E-06 M): 88.9713% and 84.187% and 87.0708%
- Cell Viability (%) (Rec-1; 1.56E-07 M): 102.885% and 100.999% and 103.498%
- Cell Viability (%) (Rec-1; 2.50E-06 M): 85.2061% and 81.3451% and 80.2365%
- Cell Viability (%) (Rec-1; 3.13E-07 M): 100.04% and 97.7301% and 97.0129%
- Cell Viability (%) (Rec-1; 5.00E-06 M): 70.5812% and 67.1387% and 67.0221%
- Cell Viability (%) (Rec-1; 6.25E-07 M): 91.8342% and 92.6769% and 91.2574%
- Cell Viability (%) (Rec-1; 7.81E-08 M): 100.946% and 100.662% and 102.733%

- IC50 (Rec-1): > 5 µM
Compound: CC(C)(C)C=C(C#N)C(=O)N1CCCC(n2nc(-c3ccc(Oc4ccccc4)cc3)c3c(N)ncnc32)C1 (stereo not shown) [RC-Ctrl]
- Cell Viability (%) (Rec-1; 1.25E-06 M): 84.1542% and 83.3085% and 82.8961%
- Cell Viability (%) (Rec-1; 1.56E-07 M): 92.1928% and 91.3082% and 92.4737%
- Cell Viability (%) (Rec-1; 2.50E-06 M): 79.0591% and 78.7184% and 77.0987%
- Cell Viability (%) (Rec-1; 3.13E-07 M): 90.2055% and 91.6728% and 91.1737%
- Cell Viability (%) (Rec-1; 5.00E-06 M): 67.2403% and 66.8996% and 66.3946%
- Cell Viability (%) (Rec-1; 6.25E-07 M): 86.0757% and 86.1055% and 87.7342%
- Cell Viability (%) (Rec-1; 7.81E-08 M): 88.6576% and 86.9542% and 93.923%
